Results reported in ChEMBL document CHEMBL1201862, “PubChem BioAssay data set” (2004).
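96-well plates; 48 h exposure; 5 concentrations. Endpoints by linear interpolation between flanking doses. Not reached: highest tested concentration assigned. GI50 is the concentration that inhibits growth by half.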 Active and inactive are the calls of the source. No stated cut-off is given here; in the data, active = GI50 up to about 1.1 µM and inactive = higher.

Assays:
Experiment in all cases: growth of human tumour cells (NCI), 48 h
[1] = tested on: EKVX
[2] = tested on: TK-10
[3] = tested on: UO-31
[4] = tested on: SF-539
[5] = tested on: HCC 2998
[6] = tested on: SW-620
[7] = tested on: HCT-116
[8] = tested on: KM12
[9] = tested on: NCI-H23
[10] = tested on: RXF 393
[11] = tested on: SF-268
[12] = tested on: IGROV-1
[13] = tested on: OVCAR-4
[14] = tested on: HOP-62
[15] = tested on: SK-MEL-28

Row | SMILES | GI50 [1] | GI50 [2] | GI50 [3] | GI50 [4] | GI50 [5] | GI50 [6] | GI50 [7] | GI50 [8] | GI50 [9] | GI50 [10] | GI50 [11] | GI50 [12] | GI50 [13] | GI50 [14] | GI50 [15]
1 | CCOC(=N)CC(=O)Nc1ccc(Cl)cc1 | > 100 µM (inactive) | > 100 µM (inactive) | > 100 µM (inactive) | > 100 µM (inactive) | > 100 µM (inactive) | > 100 µM (inactive) | > 100 µM (inactive) | > 100 µM (inactive) | > 100 µM (inactive) | > 100 µM (inactive) | > 100 µM (inactive) | > 100 µM (inactive) | > 100 µM (inactive) | > 100 µM (inactive) | > 100 µM (inactive)
2 | O=C1C2c3[nH]c4ccccc4c3[C@@H]3CCCCCCCCCCC3C2C(=O)N1c1ccccc1 (stereo partly drawn) | 55.1 µM (inactive) | 20 µM (inactive) | 32.9 µM (inactive) | 10.1 µM (inactive) | 27.5 µM (inactive) | 15.2 µM (inactive) | – | 18.2 µM (inactive) | 17.5 µM (inactive) | 14.8 µM (inactive) | 13.6 µM (inactive) | 18.7 µM (inactive) | 17.6 µM (inactive) | – | 23.2 µM (inactive)
3 | CCC1CCc2c(OC)ccc(OCC(=O)O)c2C1=O (stereo not drawn) | > 100 µM (inactive) | > 100 µM (inactive) | > 100 µM (inactive) | > 100 µM (inactive) | > 100 µM (inactive) | > 100 µM (inactive) | – | > 100 µM (inactive) | > 100 µM (inactive) | > 100 µM (inactive) | > 100 µM (inactive) | > 100 µM (inactive) | > 100 µM (inactive) | > 100 µM (inactive) | > 100 µM (inactive)
4 | CCc1ccc(/N=C\c2cc(OC)c(OC)c(OC)c2)cc1 | > 100 µM (inactive) | > 100 µM (inactive) | > 100 µM (inactive) | > 100 µM (inactive) | – | 10.9 µM (inactive) | > 100 µM (inactive) | > 100 µM (inactive) | > 100 µM (inactive) | > 100 µM (inactive) | > 100 µM (inactive) | > 100 µM (inactive) | > 100 µM (inactive) | > 100 µM (inactive) | > 100 µM (inactive)
5 | Cc1cc2cc(Cl)ccc2nc1C(=O)c1ccccc1 | – | > 100 µM (inactive) | > 100 µM (inactive) | > 100 µM (inactive) | > 100 µM (inactive) | > 100 µM (inactive) | > 100 µM (inactive) | > 100 µM (inactive) | > 100 µM (inactive) | 22.5 µM (inactive) | > 100 µM (inactive) | > 100 µM (inactive) | > 100 µM (inactive) | 43.1 µM (inactive) | > 100 µM (inactive)
6 | Cc1cc2c(C)nn(Cc3ccccc3)c2c(C(=O)O)c1C | > 100 µM (inactive) | > 100 µM (inactive) | > 100 µM (inactive) | > 100 µM (inactive) | > 100 µM (inactive) | > 100 µM (inactive) | > 100 µM (inactive) | – | > 100 µM (inactive) | > 100 µM (inactive) | > 100 µM (inactive) | > 100 µM (inactive) | – | > 100 µM (inactive) | > 100 µM (inactive)
7 | CCCC(=O)OC[n+]1ccc2c(C)c3[nH]c4ccccc4c3c(C)c2c1 | – | 1.71 µM (inactive) | 1.87 µM (inactive) | 0.519 µM (active) | 0.611 µM (active) | 0.215 µM (active) | 0.118 µM (active) | 0.377 µM (active) | 0.064 µM (active) | 0.067 µM (active) | 0.661 µM (active) | 0.51 µM (active) | 0.706 µM (active) | 0.914 µM (active) | –
8 | COc1cc(C2C(Cl)C(=O)N2NC(=O)Cc2ccccc2)cc(Br)c1O (stereo not drawn) | 94.8 µM (inactive) | > 100 µM (inactive) | 64.9 µM (inactive) | – | > 100 µM (inactive) | > 100 µM (inactive) | 71.4 µM (inactive) | > 100 µM (inactive) | 76.9 µM (inactive) | 92.3 µM (inactive) | 61 µM (inactive) | > 100 µM (inactive) | 63.5 µM (inactive) | > 100 µM (inactive) | > 100 µM (inactive)
9 | CCOC(=O)Nn1c(C)cc(C(=O)OC)c1C | > 100 µM (inactive) | > 100 µM (inactive) | > 100 µM (inactive) | > 100 µM (inactive) | > 100 µM (inactive) | > 100 µM (inactive) | > 100 µM (inactive) | > 100 µM (inactive) | > 100 µM (inactive) | > 100 µM (inactive) | > 100 µM (inactive) | > 100 µM (inactive) | – | > 100 µM (inactive) | > 100 µM (inactive)
10 | COC(=O)c1onc(-c2c(OC)cc(OC)cc2OC)c1C(=O)OC | > 100 µM (inactive) | > 100 µM (inactive) | > 100 µM (inactive) | – | > 100 µM (inactive) | > 100 µM (inactive) | > 100 µM (inactive) | > 100 µM (inactive) | > 100 µM (inactive) | > 100 µM (inactive) | > 100 µM (inactive) | > 100 µM (inactive) | > 100 µM (inactive) | > 100 µM (inactive) | > 100 µM (inactive)
